Article PMC4015961, “New colorimetric screening assays for the directed evolution of fungal laccases to improve the conversion of plant biomass” (BMC Biotechnology, 2013)
Like-named read-outs stand apart in the source and are kept apart here.

Key:
R2 LRPL [1] = target: T1, R2 LRPL (Thermothelomyces thermophilus, UniProt G2QG31); assay: endpoint absorbance increase at […] nm; assay type: biochemical; conditions: 2 mM acetosyringone; tartrate pH 4.0; yeast supernatant
T1 construct: gene lcc1; secreted by S. cerevisiae, crude supernatant
T1 sequence (G2QG31 entry or part of it): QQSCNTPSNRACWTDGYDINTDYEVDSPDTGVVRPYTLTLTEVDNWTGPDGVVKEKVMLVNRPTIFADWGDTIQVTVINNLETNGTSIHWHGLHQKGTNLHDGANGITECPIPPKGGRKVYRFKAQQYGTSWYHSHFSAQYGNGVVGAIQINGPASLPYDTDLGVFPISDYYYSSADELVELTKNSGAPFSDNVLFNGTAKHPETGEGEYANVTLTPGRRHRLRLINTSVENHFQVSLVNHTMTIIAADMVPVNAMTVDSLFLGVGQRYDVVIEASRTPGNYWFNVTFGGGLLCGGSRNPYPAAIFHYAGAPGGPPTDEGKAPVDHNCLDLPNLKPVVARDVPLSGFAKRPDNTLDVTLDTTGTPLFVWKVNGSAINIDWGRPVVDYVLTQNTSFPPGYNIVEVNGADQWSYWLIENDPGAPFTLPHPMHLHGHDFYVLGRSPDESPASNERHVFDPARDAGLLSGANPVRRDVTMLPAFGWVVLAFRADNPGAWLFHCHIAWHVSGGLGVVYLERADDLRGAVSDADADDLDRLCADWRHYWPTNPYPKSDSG

[2] = tested on: T2, Trametes villosa laccase (TvL); conditions: sodium tartrate pH 4.0; crude commercial enzyme
T2 construct: gene LCC1

[3] = tested on: T3, Trametes villosa laccase (TvL); assay: absorbance increase at […] nm; assay type: biochemical; conditions: sodium tartrate pH 4.0; crude commercial enzyme; assigned by order of preceding sentence and Figure 2A-C
T3 construct: gene LCC1; crude commercial laccase preparation, Novozymes

[4] = tested on: T3, Trametes villosa laccase (TvL); assay: absorbance increase at […] nm; assay type: biochemical; conditions: sodium tartrate pH 4.0; crude commercial enzyme
R2 LRPL [5] = target: T1, R2 LRPL; assay: endpoint absorbance increase at […] nm; assay type: biochemical; conditions: 250 μM sinapic acid; tartrate pH 4.0; yeast supernatant

How did the “endpoint absorbance increase at 520 nm” value (R2 LRPL [1]) turn out when `COc1cc(C(C)=O)cc(OC)c1O` [acetosyringone, 3′,5′-dimethoxy-4′-hydroxyacetophenone] was run?
The value was “colored responses were linear (absorbance increased with increasing volumes of supernatant) with both laccases”.

And the Km [2]?
Its Km is 93 µM.

For `COc1cc(C=O)cc(OC)c1O` [syringaldehyde, 3,5-dimethoxy-4-hydroxybenzaldehyde], which Km [3] is on record?
Its Km is 120 µM.

What does the source list for `COc1cc(/C=C/C(=O)O)cc(OC)c1O` [sinapic acid]?
Km [4]: 85 µM; endpoint absorbance increase at 512 nm (R2 LRPL [5]): colored responses were linear (absorbance increased with increasing volumes of supernatant) with both laccases
